PMC12730333 (Biology, 2025)
Marks after values point to notes of the source that are not given here.

Experiments:
[1] = Cytotoxicity assay (Alamar Blue, 24 h) on murine peritoneal macrophages; format: cell-based, Swiss Webster mice; conditions: male, Swiss Webster, mouse, murine peritoneal macrophages (MPMs, primary cells), 3 × 10^5 cells/well
Procedure: Murine peritoneal macrophages—MPMs (primary cells)—were isolated from male Swiss Webster mice stimulated with 1 mL of 3% Brewer’s thioglycollate medium, administered intraperitoneally. After 96 h, the animals were euthanized, and the MPMs were collected by peritoneal lavage with approximately 10 mL of RPMI 1640 medium. The cell suspension was centrifuged at 382× g for 10 min, and the pellet was resuspended in medium supplemented with 5% FBS, 1% Pen/Str, and 2 mM L-glutamine. All cell cultures were maintained at 37 °C and 5% CO2 [73]. For the experiments, all cell types were cultured until confluency.
(§1) J774.G8, VERO (10^5 cells/well), HepG2, L929 (0.5 × 10^5 cells/well) cells, and MPMs (3 × 10^5 cells/well) were centrifuged, resuspended in medium, plated in 96-well microplates, and incubated for 24 h under cultivation conditions. Subsequently, they were exposed to different concentrations of the compounds, serially diluted in medium to a final volume of 100 µL/well, and incubated for 24 h at 37 °C and 5% CO2. Cell viability was then assessed using the AB, and data were acquired by spectrophotometry. […] Untreated cells were used as negative controls, and cells exposed to the reference compound (MT) were used as positive controls. The Selectivity Index (SI) was calculated using the ratio SI = CC50 (mammalian cells)/IC50 (promastigote or amastigote forms of L. amazonensis).

[2] = test system: promastigote forms of Leishmania amazonensis PH8 strain; experiment: Mitochondrial membrane potential (ΔΨm) by flow cytometry, TMRE, promastigotes; conditions: exposed to IC50, 24 h
[3] = Cytotoxicity assay (Alamar Blue, 24 h) on VERO cells; format: cell-based, African green monkey; conditions: African green monkey, VERO cells
Procedure: (§2) HepG2 cells (human hepatocellular carcinoma), VERO cells (African green monkey kidney), and J774.G8 macrophages (murine reticulosarcoma) were maintained in DMEM medium, supplemented with 10% FBS, 1% Pen/Str at 37 °C and 5% CO2 [70, 71]. For the cultivation of L929 fibroblasts (murine fibrosarcoma), RPMI 1640 medium without phenol red, supplemented with 2 mM L-glutamine, 10% FBS, and 1% Pen/Str, was used and maintained under the same conditions of temperature and CO2 as above.
as §1

[4] = test system: promastigotes; conditions: MB without light treatment; cited from earlier work
[5] = Cytotoxicity assay (Alamar Blue, 24 h) on J774.G8 macrophages; format: cell-based, murine; conditions: mouse, J774.G8 macrophages
Procedure: as §2, §1

[6] = test system: ex vivo amastigote forms of L. amazonensis LTB0016 strain; experiment: ROS production by flow cytometry, H2DCFDA, ex vivo amastigotes; format: cell-based, Leishmania amazonensis; conditions: exposed to IC50 (AA 10 µM), 24 h
[7] = test system: promastigote forms of Leishmania amazonensis PH8 strain; experiment: Leishmanicidal activity assay on promastigotes (Alamar Blue, 24 h); format: cell-based; conditions: Leishmania amazonensis, 10^6 parasites/mL
Procedure: Promastigote forms of Leishmania amazonensis (IFLA/BR/1967/PH8) were obtained from the Instituto Oswaldo Cruz Leishmania collection (CLIOC/Fiocruz). These cultures were maintained in Schneider’s Insect Medium, supplemented with 20% FBS and 1 μL/mL of Pen/Str at 26 °C. In vitro passages were conducted weekly, with promastigotes harvested during the late logarithmic phase for experiments on the 5th day of growth (Figure S1A).
MT was employed as the reference drug.

[8] = Cytotoxicity assay (Alamar Blue, 24 h) on L929 fibroblasts; format: cell-based, murine; conditions: mouse, L929 fibroblasts
Procedure: as §2, §1

[9] = test system: fibroblasts and macrophages; parameters: method as in PMID 38917757; conditions: MB without light treatment; cited from earlier work
[10] = test system: ex vivo amastigote forms of L. amazonensis LTB0016 strain; experiment: Leishmanicidal activity assay on ex vivo amastigotes (Alamar Blue, 24 h); conditions: Leishmania amazonensis, 24 h, read-out: IC50 Ama.
From the text: Ex vivo amastigote forms of L. amazonensis (MHOM/BR/77/LTB0016) were harvested and purified from lesions of male BALB/c mice. For this, a suspension containing 10^6 amastigotes was inoculated subcutaneously into the intraplantar region of the hind paw. After 30 days, the animals were euthanized, and their paws were excised and rinsed in 70% ethanol. The epidermis and necrotic tissues were mechanically dissociated. Subsequently, the paws were placed in Petri dishes containing RPMI 1640 medium supplemented with 5% FBS and 2% Pen/Str. […] The supernatant was transferred to another tube, homogenized with a syringe, and centrifuged at 764× g for another 15 min. The supernatant was discarded, and the pellet was resuspended in RPMI 1640 medium [69].
(§3) Promastigotes were kept at 26 °C, whereas amastigotes were kept at 32 °C. After 24 h, parasite viability was assessed using the AB colorimetric method, and the data were analyzed using a spectrophotometer as previously described [74]. […] Wells with medium and without parasites were used as blanks, and wells with medium and untreated parasites were used as negative controls. MT was employed as the reference drug.

[11] = test system: Leishmania amazonensis promastigote forms (PH8 strain)
Procedure: as §3

[12] = test system: promastigote forms of Leishmania amazonensis PH8 strain; experiment: ROS production by flow cytometry, H2DCFDA, promastigotes; format: cell-based; conditions: exposed to IC50 (AA 10 µM), 24 h
[13] = test system: promastigote forms of Leishmania amazonensis PH8 strain; experiment: Preliminary MB concentration assessment on promastigotes, Neubauer chamber counting, 72 h; format: cell-based; conditions: 3.13–200 μM tested
Procedure: Deyvison Rhuan Vasco-dos-Santos, Juliana Almeida-Silva, Ludmila Ferreira de Almeida Fiuza,
Natalia Vacani-Martins, Zênis Novais da Rocha, Maria de Nazaré Correia Soeiro, Andrea Henriques-Pons,
Eduardo Caio Torres-Santos and Marcos André Vannier-Santos
Evaluation of parasite proliferation after 24 h (B2), 48 h (B3), and 72 h (B4) are shown. Viability was
assessed by counting in a Neubauer chamber. Data represents mean ± SD. (*) p < 0.05 when
compared to negative control by ANOVA and Tukey’s post-test. […]

[14] = test system: ex vivo amastigote forms of L. amazonensis LTB0016 strain; experiment: Mitochondrial membrane potential (ΔΨm) by flow cytometry, TMRE, ex vivo amastigotes
[15] = test system: L. amazonensis; parameters: method as in Cabral et al. 136; conditions: MB treatment with PDT; ref Cabral et al. 136; cited from earlier work
[16] = test system: promastigote forms of Leishmania amazonensis PH8 strain; experiment: Cell death by flow cytometry, Annexin V/PI, promastigotes; conditions: 200 μM, 24 h, preliminary assay (Figure S5); control 99.81%
[17] = Cytotoxicity assay (Alamar Blue, 24 h) on HepG2 cells; format: cell-based, human; conditions: human, HepG2 cells
Procedure: as §2, §1

[18] = test system: HepG2 cells; experiment: as above; format: cell-based, human; conditions: 0.5 × 10^5 cells/well
Procedure: as §2, §1

[19] = test system: ex vivo amastigote forms of Leishmania amazonensis LTB0016 strain; experiment: Cell death by flow cytometry, 7-AAD, ex vivo amastigotes; conditions: IC50, 24 h, mean ± SD
[20] = lower concentrations (37–100 μM)
[21] = exposed to IC50, 24 h, (MT − MC)/MC

## CN(C)c1ccc2nc3ccc(=[N+](C)C)cc-3sc2c1 [MB, methylene blue, reference compound]
[1]
  CC50 at 24 h: 36 ± 3.69 µM
[2]
  TMRE MFI, Promastigotes High Population: 56,878.47
  TMRE MFI, Promastigotes Low Population: 2737.60 *
[2]; (MT − MC)/MC
  VIΔΨm, Promastigotes High Population: 0.02 ± 0.03
[2]; (MT − MC)/MC, negative = depolarization
  VIΔΨm, Promastigotes Low Population: −0.41 ± 0.05
[3]; 10^5 cells/well
  CC50 at 24 h: 141 ± 5.58 µM
[3]; [20]
  viability at 24 h: > 50%
[4]
  IC50: 100 µM
[5]; 10^5 cells/well, read-out: CC50 J744.G8
  CC50 at 24 h: 206 ± 9.19 µM
[5]; lower concentrations (37–100 μM), read-out: viability of J774.G8 cells
  viability at 24 h: > 50%
[6]
  H2DCFDA MFI, Ex Vivo Amastigotes High Population: 140,636.20
  H2DCFDA MFI, Ex Vivo Amastigotes Low Population: 3151.50
[6]; MT/MC
  VIROS, Ex Vivo Amastigotes High Population: 0.90 ± 0.29
  VIROS, Ex Vivo Amastigotes Low Population: 1.28 ± 0.46
[7]
  IC50: 61.4 ± 4.41 µM
[8]; 0.5 × 10^5 cells/well
  CC50 at 24 h: 322 ± 3.74 µM
[8]; lower concentrations (37–100 μM), read-out: viability of L929 cells
  viability at 24 h: > 50%
[9]
  cytotoxicity in fibroblasts and macrophages: no cytotoxicity observed
[10]
  IC50: 15.7 ± 2.23 µM
[11]; exposed to IC50
  proliferation of promastigotes over 24 to 168 h: total inhibition from 96 h
[11]; exposed to IC50, 24–168 h
  time from which proliferation was significantly (p < 0.05) reduced compared to MT: ≥ 24 h
[12]
  H2DCFDA MFI, Promastigotes High Population: 1,658,186.80 *
  H2DCFDA MFI, Promastigotes Low Population: 26,534.03
[13]; 48 h
  concentration from which significant reduction (p < 0.05) at 48 h: ≥ 50 µM
[13]; 72 h
  concentration from which total viability loss at 72 h: ≥ 12.50 µM
[14]; IC50, 24 h
  loss of potential (ΔΨm) in HP ex vivo amastigotes / mitochondrial depolarization: up to 61%
[14]; ex vivo amastigotes, LP plus HP, IC50, 24 h
  decrease of ΔΨm considering both subpopulations: 98%
[14]; exposed to IC50, 24 h
  TMRE MFI, ex vivo Amastigotes High Population: 317,106.50
  TMRE MFI, ex vivo Amastigotes Low Population: 3237.43
[14]; [21]
  VIΔΨm, ex vivo Amastigotes High Population: −0.61 ± 0.18
  VIΔΨm, ex vivo Amastigotes Low Population: −0.37 ± 0.32
[15]
  increase in ROS levels: 2 fold
  reduction in ΔΨm: 60%
[16]
  viability of promastigotes (AV/PI): 12.89%
[17]; 0.5 × 10^5 cells/well
  CC50 at 24 h: > 70 µM
[17]; [20]
  viability at 24 h: > 50%
[18]
  CC50: 96 ± 3.28 µM
[19]
  cell death (7-AAD) in ex vivo amastigotes: highest mortality rate
